≈ marks a conversion by molar mass, not a printed value.
Key:
[1] = Solid stability evaluation (XRPD and HPLC) at 25° C./60% RH and 40° C./75% RH; assay type: physicochemical; conditions: for Crystalline form change: XRPD
[2] = HPLC impurities of solid stability samples; assay type: physicochemical
[3] = Hygroscopicity by Dynamic Vapour Sorption (DVS); assay type: physicochemical; conditions: 25° C./80% RH
Description: The hygroscopicity of the crystalline A of hydrochloride, crystalline A of malate and crystalline B of adipate was evaluated by a Dynamic Vapour Sorption (DVS) instrument. Crystalline form […] starts with ambient humidity (˜60% RH), and crystalline form B starts with 0% relative humidity (0% RH). The test collected mass change percentage of the sample under constant temperature conditions of 25° C., with changes in humidity (60% RH-95% RH-0% RH-95% RH or 0% RH-95% RH-0% RH). The test results are shown in FIGS. 103, 104 and 105 respectively.

[4] = The pharmacokinetic test of rat; assay type: in vivo; conditions: male SD rats, Gavage (3 mg/kg)
Description: • 1.1 Test animals: male SD rats, about 220 g, 6 to 8 weeks old, 6 rats/compound. Purchased from Chengdu Senwell Experimental Animals Co., Ltd. • 1.2 Test design: On the day of the test, 6 SD rats were randomly divided into groups according to body weight. Water and no food for 12 to 14 hours one day before administration, and food 4 hours after administration.
Vehicle for intravenous administration: 5% DMA+5% Solutol+90% Saline; vehicle for gavage administration: 0.5% MC; the reference compound INS1007, which is Compound 2 in patent WO2015110826A1, was prepared according to the method of the patent.
Before and after administration, 0.1 mL of blood was taken from the orbit under isoflurane anesthesia. It was placed in an EDTAK2 centrifuge tube, and centrifuged at 5000 rpm and 4° C. for 10 min, and the plasma was collected. Time points of blood collection in the intravenous groups: 0, 5, 15, 30 min, 1, 2, 4, 6, 8, 24 h; time points of blood collection in the gavage groups: 0, 5, 15, 30 min, 1, 2, 4, 6, 8, 24 h. Before analysis and detection, all samples were stored at −80° C.

Dynamic solubility = assay type: physicochemical; conditions: thermodynamic from solid, 37° C.
Description: A sample of about 0.9 mL was taken, centrifuged and filtered, tested the solid by XRPD, and tested the liquid by HPLC concentration and pH.

[5] = target: Recombinant human DPP1 enzyme (Homo sapiens (Human), UniProt P53634); test: Activity detection test of DPP1 enzyme in vitro
Chain of Recombinant human DPP1 enzyme (P53634 25-134): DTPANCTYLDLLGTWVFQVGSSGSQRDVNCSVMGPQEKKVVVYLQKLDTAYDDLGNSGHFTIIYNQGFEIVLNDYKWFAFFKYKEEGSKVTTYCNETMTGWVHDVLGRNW
Chain of Recombinant human DPP1 enzyme (P53634 231-394): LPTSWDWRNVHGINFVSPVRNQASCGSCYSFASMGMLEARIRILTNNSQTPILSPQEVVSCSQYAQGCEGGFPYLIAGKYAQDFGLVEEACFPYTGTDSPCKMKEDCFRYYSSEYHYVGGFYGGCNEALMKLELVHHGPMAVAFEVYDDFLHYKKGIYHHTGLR
Chain of Recombinant human DPP1 enzyme (P53634 395-463): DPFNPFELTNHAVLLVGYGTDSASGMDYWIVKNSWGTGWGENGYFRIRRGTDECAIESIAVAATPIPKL

Row | HPLC purity (Area %) ([1]; 25° C./60% RH, 1 week) | Purity/Starting purity (%) ([1]; 25° C./60% RH, 1 week) | Crystalline form change ([1]; 25° C./60% RH, 1 week) | HPLC purity (Area %) ([1]; 25° C./60% RH, 3 weeks) | Purity/Starting purity (%) ([1]; 25° C./60% RH, 3 weeks) | HPLC purity (Area %) ([1]; 40° C./75% RH, 1 week) | Purity/Starting purity (%) ([1]; 40° C./75% RH, 1 week) | Crystalline form change ([1]; 40° C./75% RH, 1 week) | HPLC purity (Area %) ([1]; 40° C./75% RH, 3 weeks) | Purity/Starting purity (%) ([1]; 40° C./75% RH, 3 weeks) | HPLC purity (Area %) ([1]; Starting) | HPLC peak at RRT 1.00 ([2]; RRT 1.00, 25° C./60% RH/1 W) | HPLC peak at RRT 1.00 ([2]; RRT 1.00, 25° C./60% RH/3 W) | HPLC peak at RRT 1.00 ([2]; RRT 1.00, 40° C./75% RH/1 W) | HPLC peak at RRT 1.00 ([2]; RRT 1.00, Starting) | HPLC impurity at RRT 1.12 ([2]; RRT 1.12, 25° C./60% RH/1 W) | HPLC impurity at RRT 1.12 ([2]; RRT 1.12, 25° C./60% RH/3 W) | HPLC impurity at RRT 1.12 ([2]; RRT 1.12, 40° C./75% RH/1 W) | HPLC impurity at RRT 1.12 ([2]; RRT 1.12, 40° C./75% RH/3 W) | HPLC impurity at RRT 1.12 ([2]; RRT 1.12, Starting) | Structure (SMILES) | also measured
1 | 99.71 | 100.0 | No | 99.72 | 100.0 | 99.74 | 100.0 | No | 99.72 | 100.0 | 99.74 | 99.71 | 99.72 | 99.74 | 99.74 | 0.29 | 0.28 | 0.26 | 0.28 | 0.26 | Cn1c(=O)oc2ccc(-c3ccc(C[C@@H](C#N)NC(=O)[C@@H]4CNCCCO4)c(F)c3)cc21.O=C(O)CCCCC(=O)O [crystalline B of adipate] | HPLC peak at RRT 1.00 ([2]; RRT 1.00, 40° C./75% RH/3 W): 99.72; water sorption [3]: 0.24%
2 | 99.60 | 100.0 | No | 99.67 | 100.0 | 99.59 | 100.0 | No | 99.17 | 99.5 | 99.63 | 99.60 | 99.67 | 99.59 | 99.63 | 0.14 | 0.13 | 0.12 | 0.18 | 0.16 | Cl.Cn1c(=O)oc2ccc(-c3ccc(C[C@@H](C#N)NC(=O)[C@@H]4CNCCCO4)c(F)c3)cc21 [crystalline A of hydrochloride] | HPLC impurity at RRT 1.06 ([2]; RRT 1.06, 25° C./60% RH/1 W): 0.26; HPLC impurity at RRT 1.06 ([2]; RRT 1.06, 25° C./60% RH/3 W): 0.21; HPLC impurity at RRT 1.06 ([2]; RRT 1.06, 40° C./75% RH/1 W): 0.20; HPLC impurity at RRT 1.06 ([2]; RRT 1.06, Starting): 0.21; HPLC impurity at RRT 1.16 ([2]; RRT 1.16, 40° C./75% RH/3 W): 0.06; HPLC impurity at RRT 1.28 ([2]; RRT 1.28, 40° C./75% RH/1 W): 0.09; HPLC impurity at RRT 1.28 ([2]; RRT 1.28, 40° C./75% RH/3 W): 0.17; water sorption [3]: 0.47%
3 | – | – | – | – | – | – | – | – | – | – | – | – | – | – | – | – | – | – | – | – | Cn1c(=O)oc2ccc(-c3ccc(C[C@@H](C#N)NC(=O)[C@@H]4CNCCCO4)cc3)cc21 [INS1007, reference compound] | F [4]: 88.1%
4 | – | – | – | – | – | – | – | – | – | – | – | – | – | – | – | – | – | – | – | – | Cn1c(=O)oc2ccc(-c3ccc(C[C@@H](C#N)NC(=O)[C@@H]4CNCCCO4)c(F)c3)cc21 [Compound I, (S)—N—((S)-1-cyano-2-(2-fluoro-4-(3-methyl-2-oxo-2,3-dihydrobenzo[d]oxazol-5-yl)phenyl)ethyl)-1,4-oxazepane-2-carboxamide] | solubility at 1 h (Dynamic solubility; simulated gastric fluid, SGF): > 5200 µg/mL; solubility at 2 h (Dynamic solubility; simulated gastric fluid, SGF): > 5200 µg/mL; solubility at 4 h (Dynamic solubility; simulated gastric fluid, SGF): > 5300 µg/mL; solubility at 24 h (Dynamic solubility; simulated gastric fluid, SGF): > 5200 µg/mL; solubility at 1 h (Dynamic solubility; FaSSIF): 370 µg/mL (≈ 844 µM); solubility at 2 h (Dynamic solubility; FaSSIF): 360 µg/mL (≈ 821 µM); solubility at 4 h (Dynamic solubility; FaSSIF): 350 µg/mL (≈ 798 µM); solubility at 24 h (Dynamic solubility; FaSSIF): 290 µg/mL (≈ 661 µM); solubility at 1 h (Dynamic solubility; FeSSIF): 2700 µg/mL (≈ 6160 µM); solubility at 2 h (Dynamic solubility; FeSSIF): 2700 µg/mL (≈ 6160 µM); solubility at 4 h (Dynamic solubility; FeSSIF): 2700 µg/mL (≈ 6160 µM); solubility at 24 h (Dynamic solubility; FeSSIF): 2300 µg/mL (≈ 5250 µM); solubility at 1 h (Dynamic solubility; water, H2O): 35 µg/mL (≈ 79.8 µM); solubility at 2 h (Dynamic solubility; water, H2O): 30 µg/mL (≈ 68.4 µM); solubility at 4 h (Dynamic solubility; water, H2O): 16 µg/mL (≈ 36.5 µM); solubility at 24 h (Dynamic solubility; water, H2O): 16 µg/mL (≈ 36.5 µM); F [4]: >100%; inhibitory activity against DPP1 (conclusion in words) [5]: high inhibitory activity
5 | 99.89 | 100.0 | No | 99.91 | 100.0 | 99.92 | 100.0 | No | 99.92 | 100.0 | 99.90 | 99.89 | 99.91 | 99.92 | 99.90 | 0.11 | 0.09 | 0.08 | 0.08 | 0.10 | Cn1c(=O)oc2ccc(-c3ccc(C[C@@H](C#N)NC(=O)[C@@H]4CNCCCO4)c(F)c3)cc21.O=C(O)CC(O)C(=O)O [crystalline A of malate] | HPLC peak at RRT 1.00 ([2]; RRT 1.00, 40° C./75% RH/3 W): 99.92; water sorption [3]: 1.27%
